# Results reported in patent publication US20080058398A1, “Compounds” (priority 2006, published 2008).
# Structures can show the parent of a compound that is named as a salt.
# How the values were obtained:
# D3 = D3 (Homo sapiens, UniProt P35462); assay: GTPγS scintillation proximity assay (GTPγS-SPA), antagonist format; assay type: biochemical; conditions: higher than Enantiomer 1
# Protocol: Functional potency and intrinsic activity of compounds of this invention can be measured by the following GTPγS scintillation proximity assay (GTPγS-SPA). Cells used in the study are Chinese Hamster Ovary (CHO) Cells.
# Cell membranes are prepared as follows. Cell pellets are resuspended in 10 volumes of 50 mM HEPES, 1 mM EDTA pH 7.4, using KOH. On the day the following proteases are added to the buffer just prior to giving the homogenisation buffer.
# 25 ug/mL Bacitracin (Sigma B0125)−1000×stock=25 mg/mL in buffer
# The cells are homogenised by 2×15 second bursts in a 1 litre Glass Waring blender in a class two biohazard cabinet. The resulting suspension is spun at 500 g for 20 mins (Beckman T21 centrifuge: 1550 rpm). The supernatant is withdrawn with a 25 mL pipette, aliquotted into pre-chilled centrifuge tubes and spun at 48,000 g to pellet membrane fragments (Beckman T1270: 23,000 rpm for 30 mins). The final 48,000 g pellet is resuspended in Homogenisation Buffer, (4× the volume of the original cell pellet). […] Protein content in the membrane preparations is evaluated with the Bradford protein assay.
# The final top concentration of test drug is 3 uM in the assay and 11 points serial dilution curves 1:4 in 100% DMSO are carried out using a Biomek FX. […] Assay plates are counted on a Viewlux, 613/55 filter, for 5 min., between 2-6 hours after the final addition. […]
# dopamine D3 receptors = dopamine D3 receptors (Homo sapiens, UniProt P35462); assay: affinity for dopamine receptors (D3); assay type: binding
# D2 receptors = D2 receptors (Homo sapiens, UniProt P14416); assay: affinity for dopamine receptors (D2); assay type: binding
# [1] = solid state accelerated stability (appearance, assay and total impurities by HPLC)
# Protocol: The solid state accelerated condition adopted were 40° C./75% RH (Relative Humidity) closed and exposed, and 50° C./amb RH (Ambient Relative Humidity) closed under air atmosphere.
# At one month time point the following samples have been analysed for the appearance, assay and total impurities.
# Assay and total impurities tests have been performed by HPLC with fast gradient method.
# Sequence of dopamine D3 receptors (P35462 whole entry): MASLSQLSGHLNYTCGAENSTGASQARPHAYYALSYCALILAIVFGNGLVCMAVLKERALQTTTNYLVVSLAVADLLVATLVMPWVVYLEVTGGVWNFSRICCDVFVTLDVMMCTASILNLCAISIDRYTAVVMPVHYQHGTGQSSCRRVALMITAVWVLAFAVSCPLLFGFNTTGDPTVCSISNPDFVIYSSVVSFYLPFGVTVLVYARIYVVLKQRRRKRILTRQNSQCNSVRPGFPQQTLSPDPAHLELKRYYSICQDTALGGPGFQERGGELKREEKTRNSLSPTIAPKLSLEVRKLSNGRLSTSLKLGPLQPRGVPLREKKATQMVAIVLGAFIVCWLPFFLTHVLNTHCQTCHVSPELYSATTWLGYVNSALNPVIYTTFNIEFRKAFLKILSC
# Sequence of D3 (P35462 whole entry): as above
# Sequence of D2 receptors (P14416 whole entry): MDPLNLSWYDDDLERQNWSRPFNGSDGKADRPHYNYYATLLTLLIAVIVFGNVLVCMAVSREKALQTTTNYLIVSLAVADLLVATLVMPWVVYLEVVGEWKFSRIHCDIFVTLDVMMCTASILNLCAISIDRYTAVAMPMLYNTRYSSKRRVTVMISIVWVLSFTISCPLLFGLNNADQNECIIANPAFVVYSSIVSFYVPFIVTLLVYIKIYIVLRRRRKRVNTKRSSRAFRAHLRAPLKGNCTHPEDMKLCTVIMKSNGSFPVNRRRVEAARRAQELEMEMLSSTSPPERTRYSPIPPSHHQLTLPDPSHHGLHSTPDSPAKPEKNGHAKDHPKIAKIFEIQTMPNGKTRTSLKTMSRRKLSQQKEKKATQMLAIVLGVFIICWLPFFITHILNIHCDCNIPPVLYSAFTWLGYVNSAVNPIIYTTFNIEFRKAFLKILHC
smiles,measurement,setting,value
"Cc1ncoc1-c1nnc(SCCCN2C[C@@H]3C[C@]3(c3ccc(C(F)(F)F)cc3F)C2)n1C (single isomer, unassigned) [Enantiomer 2]",fpKi (D3) difference,D3,> 1 log-unit
same,affinity for dopamine D3 receptors,dopamine D3 receptors,exhibit affinity
same,affinity for dopamine D3 versus D2 receptors,dopamine D3 receptors; D3 compared with D2,greater affinity for dopamine D3 than for D2 receptors
same,affinity for dopamine D2 receptors,D2 receptors,exhibit affinity
"Cc1ncoc1-c1nnc(SCCCN2C[C@@H]3C[C@]3(c3ccc(C(F)(F)F)cc3F)C2)n1C.O=C(O)C(O)C(O)C(=O)O [Example 1, (1S,5R)-1-[2-fluoro-4-(trifluoromethyl)phenyl]-3-(3-{[4-methyl-5-(4-methyl-1,3-oxazol-5-yl)-4H-1,2,4-triazol-3-yl]thio}propyl)-3-azabicyclo[3.1.0]hexane (2R,3R) tartrate]",stability in comparison with the hydrochloride salt,[1],improved stability
same,total impurities,"[1]; after 1 month, at any stability condition tested",around 0.5 % a/a
"Cc1ncoc1-c1nnc(SCCCN2C[C@@H]3C[C@]3(c3ccc(C(F)(F)F)cc3F)C2)n1C [Preparation 7, (1S,5R)-1-[2-Fluoro-4-(trifluoromethyl)phenyl]-3-(3-{[4-methyl-5-(4-methyl-1,3-oxazol-5-yl)-4H-1,2,4-triazol-3-yl]thio}propyl)-3-azabicyclo[3.1.0]hexane hydrochloride]",change of total impurities,[1]; at any investigated stability condition,increase of total impurities
"Cc1ncoc1-c1nnc(SCCCN2CC3CC3(c3ccc(C(F)(F)F)cc3F)C2)n1C (centres unmarked) [the tartrate, 1-[2-fluoro-4-(trifluoromethyl)phenyl]-3-(3-{[4-methyl-5-(4-methyl-1,3-oxazol-5-yl)-4H-1,2,4-triazol-3-yl]thio}propyl)-3-azabicyclo[3.1.0]hexane]",stability in comparison with the hydrochloride salt,[1],improved stability
